These results are taken from US12365692B2, “6-hydroxy-8-oxatricyclo[3.2.1.02,4]octane-2-carboxamide derivatives for inducing chondrogenesis for treating joint damage” (NOVARTIS AG, priority 2018, dated 2025).

Molecules are shown by their SMILES. pIC50: −log10 of the molar value. Some results are limits rather than exact numbers.

In the assay the test system is ALP in NHAC (normal human articular chondrocytes). Nature of the assay: Alkaline Phosphatase (ALP) activity assay: ALP staining and quantitation in NHACs (prevention of chondrocyte hypertrophy). It is filed as cell-based. Conditions: Chondrocyte, 288 h, human IL-1 beta 10 ng/mL, 12 days; for pIC50: Fast Blue RR staining, high content imaging; for Emax: read-out: ALP in NHAC (% Efficacy). The method, then:
The compounds of the present invention were evaluated in the Alkaline Phosphatase (ALP) activity assay to determine the ability of the compounds to prevent chondrocyte hypertrophy in normal human articular chondrocytes (NHACs).
Normal human articular chondrocytes (NHACs) were purchased from PromoCell (Heidelberg, Germany) and grown in Chondrocyte Growth Medium (CGM; Lonza, Walkersville, Md.).
NHACs were expanded in Chondrocyte Growth Medium (CGM) from Lonza until they reached a 60-80% confluency. To initiate differentiation, 7,500 cells were plated/well with indicated test compound dose in 384-well Cell Carrier Ultra plates (Perkin Elmer) with DMEM (SH30022—HyClone) containing 10% FBS (35-015-CV—Corning), 1% Pen/Strep antibiotics (SV30010—HyClone), and 1% Normocin (50 mg/mL—InvivoGen). Cells with test compounds were incubated at 37° C., 5% CO2 for 5 hours and then added human IL-1 beta (AF-200-1B—Peprotech) to each well at a final concentration of 10 ng/mL and incubated at 37° C., 5% CO2 for 12 days.
To detect the presence of hypertrophic cells, NHACs were fixed with 4% paraformaldehyde and Hoechst 33342 (Invitrogen) dye for 30 minutes, rinsed in PBS, then stained with Fast Blue RR Salt (F0500—Sigma) with Naphthol AS-MX Phosphate Alkaline Solution, 0.25% (855—Sigma-Aldrich).
The staining was imaged by fluoresecent microscopy, using the 561 nm wavelength, and/or quantified by high content imaging with the ImageXpress Confocal (Molecular Devices, Sunnyvale, CA). Data analyses were performed with a customized multiwavelength cell-scoring application The activity of the compounds of the present invention in the ALP assay is summarized in Table 2.

In the case of `O=C(Nc1cc(C(F)(F)F)ccn1)[C@]12C[C@@]1(c1ccnc(F)c1)[C@H]1O[C@@H]2C[C@@H]1O` (racemic) [Example 1, rac-(1R,2R,4S,5R,6S)-4-(2-fluoropyridin-4-yl)-6-hydroxy-N-(4-(trifluoromethyl)pyridin-2-yl)-8-oxatricyclo[3.2.1.02,4]octane-2-carboxamide], the pIC50 is under 4.52 and the Emax was determined as 28%.

In the case of `O=C(Nc1ccc(C(F)(F)F)c(F)c1)[C@]12C[C@@]1(c1ccnc(F)c1)[C@H]1O[C@@H]2C[C@@H]1O` (racemic) [Example 2, rac-(1R,2R,4S,5R,6S)-N-(3-fluoro-4-(trifluoromethyl)phenyl)-4-(2-fluoropyridin-4-yl)-6-hydroxy-8-oxatricyclo[3.2.1.02,4]octane-2-carboxamide], the pIC50 was under 4.52 and the Emax came out at 28%.

As for `O=C(Nc1ccc(C(F)(F)F)c(Cl)c1)[C@]12C[C@@]1(c1ccnc(F)c1)[C@H]1O[C@@H]2C[C@@H]1O` (racemic) [Example 3, rac-(1R,2R,4S,5R,6S)—N-(3-chloro-4-(trifluoromethyl)phenyl)-4-(2-fluoropyridin-4-yl)-6-hydroxy-8-oxatricyclo[3.2.1.02,4]octane-2-carboxamide], the pIC50 is 4.92 and the Emax came out at 71%.

`O=C(Nc1cc(C(F)(F)F)cc(Cl)n1)[C@]12C[C@@]1(c1ccnc(F)c1)[C@H]1O[C@@H]2C[C@@H]1O` (racemic) [Example 4, rac-(1R,2R,4S,5R,6S)—N-(6-chloro-4-(trifluoromethyl)pyridin-2-yl)-4-(2-fluoropyridin-4-yl)-6-hydroxy-8-oxatricyclo[3.2.1.02,4]octane-2-carboxamide]: the pIC50 was under 4.52 and the Emax came to 0%.

Consider `O=C(Nc1cc(C(F)(F)F)c(Cl)cn1)[C@]12C[C@@]1(c1ccnc(F)c1)[C@H]1O[C@@H]2C[C@@H]1O` (racemic) [Example 5, rac-(1R,2R,4S,5R,6S)-N-(5-chloro-4-(trifluoromethyl)pyridin-2-yl)-4-(2-fluoropyridin-4-yl)-6-hydroxy-8-oxatricyclo[3.2.1.02,4]octane-2-carboxamide], for which the pIC50 is under 4.52 and the Emax came out at 38%.

As for `O=C(Nc1cc(C(F)(F)F)cc(C2CC2)n1)[C@]12C[C@@]1(c1ccnc(F)c1)[C@H]1O[C@@H]2C[C@@H]1O` (racemic) [Example 6, rac-(1R,2R,4S,5R,6S)—N-(6-cyclopropyl-4-(trifluoromethyl)pyridin-2-yl)-4-(2-fluoropyridin-4-yl)-6-hydroxy-8-oxatricyclo[3.2.1.02,4]octane-2-carboxamide], the pIC50 is under 4.52 and the Emax stood at 9%.

As for `Cc1cc(C(F)(F)F)cc(NC(=O)[C@]23C[C@@]2(c2ccnc(F)c2)[C@H]2O[C@@H]3C[C@@H]2O)n1` (racemic) [Example 7, rac-(1R,2R,4S,5R,6S)-4-(2-fluoropyridin-4-yl)-6-hydroxy-N-(6-methyl-4-(trifluoromethyl)pyridin-2-yl)-8-oxatricyclo[3.2.1.02,4]octane-2-carboxamide], the pIC50 is under 4.52 and the Emax came to 0%.

In the case of `CCOc1cc(C(F)(F)F)cc(NC(=O)[C@]23C[C@@]2(c2ccnc(F)c2)[C@H]2O[C@@H]3C[C@@H]2O)n1` (racemic) [Example 8, rac-(1R,2R,4S,5R,6S)—N-(6-ethoxy-4-(trifluoromethyl)pyridin-2-yl)-4-(2-fluoropyridin-4-yl)-6-hydroxy-8-oxatricyclo[3.2.1.02,4]octane-2-carboxamide], the pIC50 is under 4.52 and the Emax worked out at 26%.

With `O=C(Nc1cccc(C(F)(F)F)c1)[C@]12C[C@@]1(c1ccnc(F)c1)[C@H]1O[C@@H]2C[C@@H]1O` (racemic) [Example 9, rac-(1R,2R,4S,5R,6S)-4-(2-fluoropyridin-4-yl)-6-hydroxy-N-(3-(trifluoromethyl)phenyl)-8-oxatricyclo[3.2.1.02,4]octane-2-carboxamide], the pIC50 is under 4.52 and the Emax is 32%.

In the case of `Cc1c(NC(=O)[C@]23C[C@@]2(c2ccnc(F)c2)[C@H]2O[C@@H]3C[C@@H]2O)cccc1C(F)(F)F` (racemic) [Example 10, rac-(1R,2R,4S,5R,6S)-4-(2-fluoropyridin-4-yl)-6-hydroxy-N-(2-methyl-3-(trifluoromethyl)phenyl)-8-oxatricyclo[3.2.1.02,4]octane-2-carboxamide], the pIC50 is under 4.52 and the Emax turned out to be 6%.

Take `Cc1ccc(NC(=O)[C@]23C[C@@]2(c2ccnc(F)c2)[C@H]2O[C@@H]3C[C@@H]2O)cc1C(F)(F)F` (racemic) [Example 11, rac-(1R,2R,4S,5R,6S)-4-(2-fluoropyridin-4-yl)-6-hydroxy-N-(4-methyl-3-(trifluoromethyl)phenyl)-8-oxatricyclo[3.2.1.02,4]octane-2-carboxamide]: the pIC50 is under 4.52 and the Emax amounted to 0%.

Take `Cc1cc(NC(=O)[C@]23C[C@@]2(c2ccnc(F)c2)[C@H]2O[C@@H]3C[C@@H]2O)cc(C(F)(F)F)c1` (racemic) [Example 12, rac-(1R,2R,4S,5R,6S)-4-(2-fluoropyridin-4-yl)-6-hydroxy-N-(3-methyl-5-(trifluoromethyl)phenyl)-8-oxatricyclo[3.2.1.02,4]octane-2-carboxamide]: the pIC50 is under 4.52 and the Emax was 21%.

Regarding `Cc1ccc(C(F)(F)F)cc1NC(=O)[C@]12C[C@@]1(c1ccnc(F)c1)[C@H]1O[C@@H]2C[C@@H]1O` (racemic) [Example 13, rac-(1R,2R,4S,5R,6S)-4-(2-fluoropyridin-4-yl)-6-hydroxy-N-(2-methyl-5-(trifluoromethyl)phenyl)-8-oxatricyclo[3.2.1.02,4]octane-2-carboxamide], the pIC50 was under 4.52 and the Emax amounted to 40%.

On to `O=C(Nc1cccc(C(F)(F)F)c1F)[C@]12C[C@@]1(c1ccnc(F)c1)[C@H]1O[C@@H]2C[C@@H]1O` (racemic) [Example 14, rac-(1R,2R,4S,5R,6S)—N-(2-fluoro-3-(trifluoromethyl)phenyl)-4-(2-fluoropyridin-4-yl)-6-hydroxy-8-oxatricyclo[3.2.1.02,4]octane-2-carboxamide], for which the pIC50 is under 4.52 and the Emax is 8%.

On to `O=C(Nc1ccc(F)c(C(F)(F)F)c1)[C@]12C[C@@]1(c1ccnc(F)c1)[C@H]1O[C@@H]2C[C@@H]1O` (racemic) [Example 15, rac-(1R,2R,4S,5R,6S)—N-(4-fluoro-3-(trifluoromethyl)phenyl)-4-(2-fluoropyridin-4-yl)-6-hydroxy-8-oxatricyclo[3.2.1.02,4]octane-2-carboxamide], for which the negative logarithm of the IC50 (pIC50) is under 4.52 and the Emax was 5%.

In the case of `O=C(Nc1cc(F)cc(C(F)(F)F)c1)[C@]12C[C@@]1(c1ccnc(F)c1)[C@H]1O[C@@H]2C[C@@H]1O` (racemic) [Example 16, rac-(1R,2R,4S,5R,6S)—N-(3-fluoro-5-(trifluoromethyl)phenyl)-4-(2-fluoropyridin-4-yl)-6-hydroxy-8-oxatricyclo[3.2.1.02,4]octane-2-carboxamide], the pIC50 is under 4.52 and the Emax came out at 34%.

Consider `O=C(Nc1cc(C(F)(F)F)ccc1F)[C@]12C[C@@]1(c1ccnc(F)c1)[C@H]1O[C@@H]2C[C@@H]1O` (racemic) [Example 17, rac-(1R,2R,4S,5R,6S)—N-(2-fluoro-5-(trifluoromethyl)phenyl)-4-(2-fluoropyridin-4-yl)-6-hydroxy-8-oxatricyclo[3.2.1.02,4]octane-2-carboxamide], for which the pIC50 was under 4.52 and the Emax amounted to 17%.

For `O=C(Nc1ccc(Cl)c(C(F)(F)F)c1)[C@]12C[C@@]1(c1ccnc(F)c1)[C@H]1O[C@@H]2C[C@@H]1O` (racemic) [Example 18, rac-(1R,2R,4S,5R,6S)—N-(4-chloro-3-(trifluoromethyl)phenyl)-4-(2-fluoropyridin-4-yl)-6-hydroxy-8-oxatricyclo[3.2.1.02,4]octane-2-carboxamide], the pIC50 was under 4.52 and the Emax is 25%.

`O=C(Nc1cc(Cl)cc(C(F)(F)F)c1)[C@]12C[C@@]1(c1ccnc(F)c1)[C@H]1O[C@@H]2C[C@@H]1O` (racemic) [Example 19, rac-(1R,2R,4S,5R,6S)—N-(3-chloro-5-(trifluoromethyl)phenyl)-4-(2-fluoropyridin-4-yl)-6-hydroxy-8-oxatricyclo[3.2.1.02,4]octane-2-carboxamide]: the pIC50 is under 4.52 and the Emax worked out at 0%.

For the molecule `COc1cc([C@@]23C[C@]2(C(=O)Nc2cc(C(F)(F)F)ccn2)[C@H]2C[C@H](O)[C@@H]3O2)ccn1` (racemic) [Example 20, rac-(1R,2R,4S,5R,6S)-6-hydroxy-4-(2-methoxypyridin-4-yl)-N-(4-(trifluoromethyl)pyridin-2-yl)-8-oxatricyclo[3.2.1.02,4]octane-2-carboxamide], the pIC50 was under 4.52 and the Emax turned out to be 24%.
